Like-named read-outs stand apart in the source and are kept apart here.

The target in one test is human α-thrombin (Homo sapiens, UniProt P00734).
The subject of test [1] is spermatozoal endoprotease acrosin. The conditions noted are these: results of Borin et al., Hoppe-Seyler's Z. Physiol. Chem. 362, 1435-1445, 1981; cited from earlier work.
Another test has as its target plasmin (Homo sapiens, UniProt P00747). The test can be described thus: Inhibitory action against plasmin, analogous procedure (substrate D-norvalylcyclohexylalanylarginyl paranitroanilide). The test is classed as biochemical. Particulars: final inhibitor concentration 0.6 mmol/1. The text has this: (plasmin substrate: D-norvalylcyclohexylalanylarginyl paranitroanilide (c=3 mmol/l)).

In a further test the target is F Xa (Homo sapiens, UniProt P00742). Put plainly: Inhibitory action against F Xa, analogous procedure (substrate Bzl-Ile-Glu-Gly-Arg pNA). Particulars: final inhibitor concentration 0.6 mmol/1. The class given is biochemical. An excerpt: F Xa substrate: Bzl-Ile-Glu-Gly-Arg pNA (50% of the Glu as the methyl ester) (c=3 mmol/liter)
Chain of F Xa (P00742 235-488 limits assumed): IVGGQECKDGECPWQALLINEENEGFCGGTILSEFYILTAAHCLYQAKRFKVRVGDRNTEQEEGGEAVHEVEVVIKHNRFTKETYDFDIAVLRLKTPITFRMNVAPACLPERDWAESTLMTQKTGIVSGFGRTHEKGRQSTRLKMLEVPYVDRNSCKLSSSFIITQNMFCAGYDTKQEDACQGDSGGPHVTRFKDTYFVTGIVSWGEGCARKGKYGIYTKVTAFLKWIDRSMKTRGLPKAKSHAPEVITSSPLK
Chain of F Xa (P00742 41-179 partner limits assumed): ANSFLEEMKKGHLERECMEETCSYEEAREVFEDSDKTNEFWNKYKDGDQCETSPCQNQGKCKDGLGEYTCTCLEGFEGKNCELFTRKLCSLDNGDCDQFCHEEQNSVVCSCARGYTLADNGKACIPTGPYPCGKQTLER

Chain of plasmin (P00747 581-810 limits assumed, species assumed): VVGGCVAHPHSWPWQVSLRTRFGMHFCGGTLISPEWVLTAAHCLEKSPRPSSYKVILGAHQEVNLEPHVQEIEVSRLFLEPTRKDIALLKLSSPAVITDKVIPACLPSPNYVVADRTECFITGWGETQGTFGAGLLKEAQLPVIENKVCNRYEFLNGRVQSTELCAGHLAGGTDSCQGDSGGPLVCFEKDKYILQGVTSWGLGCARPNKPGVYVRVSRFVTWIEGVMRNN
Chain of plasmin (P00747 97-580 partner limits assumed, species assumed): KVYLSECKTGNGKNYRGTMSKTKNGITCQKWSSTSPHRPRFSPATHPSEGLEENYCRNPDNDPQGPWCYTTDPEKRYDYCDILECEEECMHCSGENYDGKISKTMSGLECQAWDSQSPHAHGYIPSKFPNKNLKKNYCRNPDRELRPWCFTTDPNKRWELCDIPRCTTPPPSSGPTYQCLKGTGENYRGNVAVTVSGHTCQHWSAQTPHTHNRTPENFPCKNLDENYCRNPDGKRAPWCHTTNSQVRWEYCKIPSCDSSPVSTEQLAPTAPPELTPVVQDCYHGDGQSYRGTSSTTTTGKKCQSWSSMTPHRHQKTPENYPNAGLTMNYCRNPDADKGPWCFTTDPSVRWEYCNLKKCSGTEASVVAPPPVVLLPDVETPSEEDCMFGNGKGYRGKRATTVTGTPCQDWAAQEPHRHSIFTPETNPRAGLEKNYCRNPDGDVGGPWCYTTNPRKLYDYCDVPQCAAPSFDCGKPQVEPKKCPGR
Procedure for human α-thrombin: Test procedure: 700 μl of tris buffer, pH 8.2, are incubated with 100 μl of human α-thrombin (0.28 UI) and 100 μl of inhibitor solution at 37° C. for 5 min. After addition of 100 μl of Tos-Gly-Pip-Arg paranitroanilide (c×3 mMol/l), the extinction at 405 nm is measured.

In the case of `N=C(N)NCCCCCC(=O)Oc1ccc(CCC(=O)O)cc1` [4-carboxyethylphenyl ε-guanidinocaproate, reference compound], the midpoint of inhibition against human α-thrombin, the IC50, lay at 3.65 ± 0.05 µM. Regarding `CC(C)(C)OC(=O)N[C@H](Cc1ccccc1)C(=O)N1CCC[C@H]1C(=O)N[C@H](CO)CCCNC(=N)N` [Boc-D-Phe-Pro-Arg CH2 --OH], the “action in the thrombin inhibition test, times less than that of H-D-Phe-Pro-Arg CH2 --OH” value at human α-thrombin (relative to H-D-Phe-Pro-Arg CH2 --OH) was “about 1,000 times”.

As for `CC(=O)O.CC(C)C[C@H](NC(=O)OC(C)(C)C)C(=O)N[C@@H](CC(C)C)C(=O)N[C@H](C=O)CCCNC(=N)N.O` [Boc-Leu-Leu-argininal . acetic acid . H2 O], the “inhibition of acrosin (in words)” value in test [1] is reported as “very active inhibitor”. As for `N=C(N)NCCC[C@@H](CO)NC(=O)[C@@H]1CCCN1C(=O)[C@H](N)Cc1ccccc1.O=C(O)C(F)(F)F.O=C(O)C(F)(F)F` [D-Phe-Pro-argininol ditrifluoroacetate, D-Phe-Pro-Arg-CH2 OH×2CF3 COOH], on plasmin, the Plasmin inhibition was 67 % inhibition. At F Xa, the “F X a inhibition” value stood at 49 % inhibition. For the same molecule, the “inhibitory action on thrombin (in words)” value against human α-thrombin was “potent inhibition of thrombin”; against human α-thrombin (listed as D-phenylalanyl-L-prolyl-L-argininol), “especially strong”. `Cl.Cl.NC(N)=NCCC[C@@H](COC(=O)c1ccc([N+](=O)[O-])cc1)NC(=O)[C@@H]1CCCN1C(=O)[C@H](N)Cc1ccccc1` [D-Phe-Pro-argininol-4-nitrobenzoate dihydrochloride]: the “inhibitory action on thrombin (in words)” value at human α-thrombin is “approximately corresponded to that of 4-carboxyethylphenylε-guanidinocaproate”.
